What is called pest or weed control is how far the test organism was held down.

Type in all cases: in vivo
Assay [1] relates to Digitaria sanguinalis. Kind of assay: greenhouse post-emergence treatment, DIGSA. The following applies: Digitaria sanguinalis, 480 h, 20 DAT, DIGSA. The gist of the method:
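Greenhouse test in humus-containing (~3.0%) loamy sand at species-dependent temperatures of 10-25° C. or 20-35° C.; treatments applied in water. Damage rated visually after 2–4 weeks (0 = none, 100 = complete destruction or no emergence).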

The next assay relates to Echinocloa crus-galli. Description: greenhouse post-emergence treatment, ECHCG. The note with it: ECHCG, 20 DAT. Put shortly: (§1)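 Post-emergence greenhouse spray on 3–15 cm plants, sown direct or transplanted a few days before treatment. Scored visually on a 0–100 scale after 2 to 4 weeks; expected additive effect computed by Colby: E=X+Y−(X·Y/100).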
The subject of another assay is Alopecurus myosuroides. Description: greenhouse pre-emergence treatment, ALOMY. The note with it: 20 DAT. The gist of the method: (§2)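 Pre-emergence spray of compounds, alone or as combinations formulated as 10% emulsion concentrate in water, directly after sowing in loamy sand (~3.0% humus); pots hooded until rooting, kept at 10-25° C or 20-35° C per species for 2 to 4 weeks. Damage scored 0-100 (100 = no emergence/complete destruction); Colby expected value E=X+Y−(X·Y/100).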

Another assay relates to Papaver rhoeas. Kind of assay: greenhouse pre-emergence treatment, PAPRH. The note with it: 20 DAT. An excerpt:
The culture containers used were plastic pots containing loamy sand with approximately 3.0% of humus as substrate. The seeds of the test plants were sown separately for each species.
For the pre-emergence treatment, the active compounds, suspended or emulsified in water, were applied directly after sowing by means of finely distributing nozzles. The containers were irrigated gently to promote germination and growth and subsequently covered with transparent plastic hoods until the plants had rooted. This cover caused uniform germination of the test plants unless this was adversely affected by the active compounds.
Depending on the species, the plants were kept at 10-25° C. and 20-35° C., respectively.
The test period extended over 2 to 4 weeks. During this time, the plants were tended and their response to the individual treatments was evaluated.
Evaluation was carried out using a scale from 0 to 100. 100 means no emergence of the plants, or complete destruction of at least the above-ground parts, and 0 means no damage or normal course of growth. A good herbicidal activity is given at values of at least 70, and very good herbicidal activity is given at values of at least 85.
The respective stated components A and B, and if appropriate, C were formulated as a 10% by weight strength emulsion concentrate and, with addition of the amount of solvent system, introduced into the spray liquor used for applying the active compound. In the examples, the solvent used was water.
In the examples below, using the method of S. R. Colby (1967) “Calculating synergistic and antagonistic responses of herbicide combinations”, Weeds 15, p. 22ff., the value E, which is expected if the activity of the individual active compounds is only additive, was calculated. E=X+Y−(X·Y/100) where X=effect in percent using herbicide A at an application rate a; • Y=effect in percent using herbicide B at application rate b; • E=expected effect (in %) of herbicide A+herbicide B at application rates a+b.

The test system of assay [2] is Digitaria sanguinalis. Kind of assay: greenhouse pre-emergence treatment, DIGSA. The note with it: Digitaria sanguinalis, 480 h, DIGSA, 20 DAT. Put shortly:
as §2

The next assay has as its system Avena fatua. Kind of assay: greenhouse pre-emergence treatment, AVEFA. The following applies: Avena fatua, 480 h, AVEFA, chlorotoluron solo 62.5 gai/ha, 20 DAT. Put shortly:
as §2

The test system of the next assay is Apera spica-venti. Description: greenhouse pre-emergence treatment, APESV. The following applies: 20 DAT. The gist of the method: as §2
Another assay concerns Galium aparine. Description: greenhouse post-emergence treatment, GALAP. The following applies: Galium aparine, 480 h, GALAP, 20 DAT. The gist of the method: as §1

As to `CC(C)N1C(=O)c2ccccc2NS1(=O)=O` [bentazon], the inhibition at 30 g/ha in the assay with Digitaria sanguinalis [1] (30 gai/ha (SL 480 g/l), Table X3, read-out: % activity, solo application) was found to be 0%. Moreover, the inhibition at 60 g/ha with Digitaria sanguinalis [1] (60 gai/ha (SL 480 g/l), Table X3, read-out: % activity, solo application) stood at 0%; in the assay on Echinocloa crus-galli (Echinochloa crus-galli, 480 h, 60 gai/ha (SL 480 g/l), Table X3, read-out: % activity, solo application) it was 0%. The pest or weed control at 30 g/ha in the assay with Digitaria sanguinalis [1] (bentazon solo 30 gai/ha) was 0%. Besides, in the assay on Digitaria sanguinalis [1] (bentazon solo 60 gai/ha), the pest or weed control at 60 g/ha stood at 0%. Besides, the pest or weed control at 120 g/ha in the assay on Digitaria sanguinalis [1] (bentazon solo 120 gai/ha) was 0%. Further, the pest or weed control at 240 g/ha in the assay with Digitaria sanguinalis [1] (bentazon solo 240 gai/ha) is 30%. Also, the “% activity” value in the assay on Echinocloa crus-galli (bentazon solo 30 gai/ha) is listed as 0%; in the assay with Echinocloa crus-galli (bentazon solo 60 gai/ha) it was 0%; with Echinocloa crus-galli (bentazon solo 120 gai/ha) it was 0%; in the assay on Echinocloa crus-galli (bentazon solo 240 gai/ha), 20%. Also, the inhibition at 120 g/ha in the assay with Echinocloa crus-galli (Echinochloa crus-galli, 480 h, 120 gai/ha (SL 480 g/l), Table X3, read-out: % activity, solo application) stood at 0%. In addition, the inhibition at 240 g/ha with Echinocloa crus-galli (Echinochloa crus-galli, 480 h, 240 gai/ha (SL 480 g/l), Table X3, read-out: % activity, solo application) worked out at 20%.
On to `Cc1ccc(NC(=O)N(C)C)cc1Cl` [chlorotoluron], for which the “% activity” value with Alopecurus myosuroides (chlorotoluron solo 62.5 gai/ha) is 0%; in the assay with Alopecurus myosuroides (chlorotoluron solo 125 gai/ha), 0%; with Alopecurus myosuroides (chlorotoluron solo 250 gai/ha), 0%; with Papaver rhoeas (chlorotoluron solo 62.5 gai/ha), 0%; in the assay on Papaver rhoeas (chlorotoluron solo 500 gai/ha), 90%; with Apera spica-venti (chlorotoluron solo 62.5 gai/ha), 55%. Besides, the “% activity” value with Apera spica-venti (chlorotoluron solo 250 gai/ha), in the assay on Apera spica-venti (chlorotoluron solo 500 gai/ha) and in the assay with Echinocloa crus-galli (chlorotoluron solo 500 gai/ha) was 65% each time. For the same compound, the pest or weed control at 125 g/ha in the assay on Digitaria sanguinalis [2] (chlorotoluron solo 125 gai/ha) is 0%. Further, the values for the pest or weed control at 500 g/ha in the assay on Digitaria sanguinalis [2] (chlorotoluron solo 500 gai/ha) and with Galium aparine (chlorotoluron solo 500 gai/ha) were 65% and 70%, respectively. Moreover, the pest or weed control at 62.5 g/ha with Avena fatua stood at 0%. In addition, the pest or weed control at 250 g/ha with Galium aparine (chlorotoluron solo 250 gai/ha) is 65%.

These data come from US10966426B2, “Herbicidal compositions comprising phenylpyrimidines” (BASF SE, priority 2016, dated 2021).
